pIC50: −log10 of the molar value.
These compounds were tested against Beta-secretase 1 (Homo sapiens, UniProt P56817) (assay: Inhibition of BACE1 after 60 mins by FRET assay).
Beta-secretase 1, sequence (P56817 whole entry): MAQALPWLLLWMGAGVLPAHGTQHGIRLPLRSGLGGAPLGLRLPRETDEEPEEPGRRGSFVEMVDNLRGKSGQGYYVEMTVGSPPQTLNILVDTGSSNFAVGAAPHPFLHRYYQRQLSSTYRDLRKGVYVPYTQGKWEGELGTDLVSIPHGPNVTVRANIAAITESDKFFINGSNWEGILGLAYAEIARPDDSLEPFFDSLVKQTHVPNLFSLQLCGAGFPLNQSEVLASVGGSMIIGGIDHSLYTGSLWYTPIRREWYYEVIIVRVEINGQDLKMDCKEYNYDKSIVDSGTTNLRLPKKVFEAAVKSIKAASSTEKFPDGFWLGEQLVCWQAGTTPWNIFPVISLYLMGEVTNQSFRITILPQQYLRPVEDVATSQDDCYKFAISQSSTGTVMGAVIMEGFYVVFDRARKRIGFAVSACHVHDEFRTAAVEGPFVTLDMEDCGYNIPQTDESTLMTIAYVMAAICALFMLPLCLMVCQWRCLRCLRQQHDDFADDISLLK

pIC50, < 5.00:
COc1ccc(-c2cc(=O)c3c(O)cc(O)c(-c4cc(-c5cc(O)c6c(=O)cc(OC)cc-6o5)ccc4OC)c3o2)cc1 [sciadopitisin], COc1cc2oc(-c3ccc(OC)c(-c4c(OC)cc(O)c5c(=O)cc(-c6ccc(O)cc6)oc45)c3)cc(O)c-2c(=O)c1 [7-O-methyl-isoginkgetin], COc1ccc(-c2cc(O)c3c(=O)cc(O)cc-3o2)cc1-c1c(OC)cc(O)c2c(=O)cc(-c3ccc(O)cc3)oc12 [4',7''-di-O-methyl-amentoflavone], COc1ccc(-c2cc(=O)c3c(O)cc(OC)c(-c4cc(-c5cc(O)c6c(=O)cc(O)cc-6o5)ccc4OC)c3o2)cc1 [kayaflavone], COc1ccc(-c2cc(=O)c3c(O)cc(OC)c(-c4cc(-c5cc(O)c6c(=O)cc(O)cc-6o5)ccc4O)c3o2)cc1 [7'',4'''-dimethylamentoflavone], O=c1cc(O)cc2oc(-c3ccc(Oc4c(O)cc5oc(-c6ccc(O)cc6)cc(=O)c5c4O)cc3)cc(O)c1-2, COc1ccc(-c2cc(=O)c3c(O)cc(OC)c(-c4cc(-c5cc(O)c6c(=O)cc(OC)cc-6o5)ccc4OC)c3o2)cc1 [7,4',7'',4'''-O-methyl-amentoflavone], COc1ccc(-c2cc(=O)c3c(O)cc(OC)c(-c4cc(-c5cc(O)c6c(=O)cc(OC)cc-6o5)ccc4O)c3o2)cc1 [heveaflavone], O=c1cc(O)cc2oc(-c3ccc(O)c(-c4c(O)cc5oc(-c6ccc(O)cc6)cc(=O)c5c4O)c3)cc(O)c1-2
